Where a name gives a salt, the structure may show the parent alone.
Molecular target: DPP-IV enzyme (Homo sapiens, UniProt P27487)
Experiment: Assay for determining DPP-IV inhibitory activity (DPP-IV-Glo luminescence)
Procedure: IC50 was determined by a NovoStar ELIASA (BMG Co. German);
The definition of inhibitory rate: [1−(S−B)/(N−B)]*100%

Chain of DPP-IV enzyme (P27487 whole entry): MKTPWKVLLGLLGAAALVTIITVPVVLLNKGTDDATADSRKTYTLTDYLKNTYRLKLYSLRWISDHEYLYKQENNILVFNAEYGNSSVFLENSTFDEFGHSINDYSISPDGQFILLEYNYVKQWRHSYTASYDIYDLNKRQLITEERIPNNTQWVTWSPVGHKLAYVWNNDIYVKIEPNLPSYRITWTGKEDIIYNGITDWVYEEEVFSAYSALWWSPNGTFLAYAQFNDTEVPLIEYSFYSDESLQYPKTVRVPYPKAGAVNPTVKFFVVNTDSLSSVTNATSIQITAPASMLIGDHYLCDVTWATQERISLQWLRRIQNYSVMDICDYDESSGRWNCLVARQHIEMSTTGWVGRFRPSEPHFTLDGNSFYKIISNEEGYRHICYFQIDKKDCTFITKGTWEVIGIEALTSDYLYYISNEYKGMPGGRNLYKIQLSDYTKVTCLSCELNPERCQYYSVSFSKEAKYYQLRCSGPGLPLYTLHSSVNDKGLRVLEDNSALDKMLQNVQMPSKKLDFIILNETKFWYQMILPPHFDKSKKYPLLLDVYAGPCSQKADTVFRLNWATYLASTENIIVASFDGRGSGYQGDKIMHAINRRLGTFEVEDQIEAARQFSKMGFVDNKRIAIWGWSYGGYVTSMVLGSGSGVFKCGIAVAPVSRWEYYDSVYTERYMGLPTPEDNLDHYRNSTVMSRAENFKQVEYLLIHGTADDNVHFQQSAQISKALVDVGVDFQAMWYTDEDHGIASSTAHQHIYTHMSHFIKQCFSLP

Row | Compound | IC50
1 | CCCNC(=O)c1nc(C(F)(F)F)n2c1CN(C(=O)C[C@H](N)Cc1cc(F)c(F)cc1F)CC2 [Example 44, (R)-7-[3-Amino-4-(2,4,5-trifluoro-phenyl)-butyryl]-3-trifluoromethyl-5,6,7,8-tetrahydro-imidazo[1,5-a]pyrazine-1-carboxylic acid propylamide] | 52 nM
2 | N[C@@H](CC(=O)N1CCn2c(C(F)(F)F)nc(C(=O)N3CCS(=O)(=O)CC3)c2C1)Cc1cc(F)c(F)cc1F [Example 6, (R)-3-Amino-1-[1-(1,1-dioxo-thiomorpholine-4-carbonyl)-3-trifluoromethyl-5,6-dihydro-8H-imidazo[1,5-a]pyrazin-7-yl]-4-(2,4,5-trifluoro-phenyl)-butan-1-one hydrochloride] | 31 nM
3 | COC(=O)c1nc(C(F)(F)F)n2c1[C@@H](C)N(C(=O)C[C@H](N)Cc1cc(F)c(F)cc1F)CC2 [Example 41, (R)-7-[3-Amino-4-(2,4,5-trifluoro-phenyl)-butyryl]-(R)-8-methyl-3-trifluoromethyl-5,6,7,8-tetrahydro-imidazo[1,5-a]pyrazine-1-carboxylic acid methyl ester hydrochloride] | 5 nM
4 | CNC(=O)c1nc(C(F)(F)F)n2c1CN(C(=O)C[C@H](N)Cc1cc(F)c(F)cc1F)CC2 [Example 8, (R)-7-[3-Amino-4-(2,4,5-trifluoro-phenyl)-butyryl]-3-trifluoromethyl-5,6,7,8-tetrahydro-imidazo[1,5-a]pyrazine-1-carboxylic acid methylamide hydrochloride] | 8 nM
5 | N[C@@H]1CCCN(C(=O)c2nc(C(F)(F)F)n3c2CN(C(=O)C[C@H](N)Cc2cc(F)c(F)cc2F)CC3)C1 [Example 11, (R)-3-Amino-1-[1-(3-amino-piperidine-1-carbonyl)-3-trifluoromethyl-5,6-dihydro-8H-imidazo[1,5-a]pyrazin-7-yl]-4-(2,4,5-trifluoro-phenyl)-butan-1-one dihydrochloride] | 216 nM
6 | CC(C)OC(=O)OC(C)OC(=O)c1nc(C(F)(F)F)n2c1CN(C(=O)C[C@H](N)Cc1cc(F)c(F)cc1F)CC2 (stereo partly drawn) [Example 37, (R)-7-[3-Amino-4-(2,4,5-trifluoro-phenyl)-butyryl]-3-trifluoromethyl-5,6,7,8-tetrahydro-imidazo[1,5-a]pyrazine-1-carboxylic acid 1-isopropoxycarbonyloxy-ethyl ester hydrochloride] | 33 nM
7 | CS(=O)(=O)CCNC(=O)c1nc(C(F)(F)F)n2c1CN(C(=O)C[C@H](N)Cc1cc(F)c(F)cc1F)CC2 [Example 2, (R)-7-[3-Amino-4-(2,4,5-trifluoro-phenyl)-butyryl]-3-trifluoromethyl-5,6,7,8-tetrahydro-imidazo[1,5-a]pyrazine-1-carboxylic acid (2-methanesulfonyl-ethyl)-amide hydrochloride] | 8 nM
8 | CCOC(=O)OC(C)OC(=O)c1nc(C(F)(F)F)n2c1CN(C(=O)C[C@H](N)Cc1cc(F)c(F)cc1F)CC2 (stereo partly drawn) [Example 34, (R)-7-[3-Amino-4-(2,4,5-trifluoro-phenyl)-butyryl]-3-trifluoromethyl-5,6,7,8-tetrahydro-imidazo[1,5-a]pyrazine-1-carboxylic acid (1-ethoxycarbonyloxy)-ethyl ester hydrochloride] | 31 nM
9 | N[C@@H](CC(=O)N1CCn2c(C(F)(F)F)nc(C(=O)N3CCCC3)c2C1)Cc1cc(F)c(F)cc1F [Example 12, (R)-3-Amino-1-[1-(pyrrolidine-1-carbonyl)-3-trifluoromethyl-5,6-dihydro-8H-imidazo[1,5-a]pyrazin-7-yl]-4-(2,4,5-trifluoro-phenyl)-butan-1-one hydrochloride] | 59 nM
10 | N#CCNC(=O)c1nc(C(F)(F)F)n2c1CN(C(=O)C[C@H](N)Cc1cc(F)c(F)cc1F)CC2 [Example 4, (R)-7-[3-Amino-4-(2,4,5-trifluoro-phenyl)-butyryl]-3-trifluoromethyl-5,6,7,8-tetrahydro-imidazo[1,5-a]pyrazine-1-carboxylic acid cyanomethyl-amide hydrochloride] | 22 nM
11 | COC(=O)c1nc(C(F)(F)F)n2c1[C@H](C)N(C(=O)C[C@H](N)Cc1cc(F)c(F)cc1F)CC2 [Example 40, (R)-7-[3-Amino-4-(2,4,5-trifluoro-phenyl)-butyryl]-(S)-8-methyl-3-trifluoromethyl-5,6,7,8-tetrahydro-imidazo[1,5-a]pyrazine-1-carboxylic acid methyl ester hydrochloride] | 314 nM
12 | CCOC(=O)c1nc(C(F)(F)F)n2c1CN(C(=O)C[C@H](N)Cc1cc(F)c(F)cc1F)CC2 [Example 23, (R)-7-[3-Amino-4-(2,4,5-trifluoro-phenyl)-butyryl]-3-trifluoromethyl-5,6,7,8-tetrahydro-imidazo[1,5-a]pyrazine-1-carboxylic acid ethyl ester hydrochloride] | 31 nM
13 | CCCCNC(=O)c1nc(C(F)(F)F)n2c1CN(C(=O)C[C@H](N)Cc1cc(F)c(F)cc1F)CC2 [Example 43, (R)-7-[3-Amino-4-(2,4,5-trifluoro-phenyl)-butyryl]-3-trifluoromethyl-5,6,7,8-tetrahydro-imidazo[1,5-a]pyrazine-1-carboxylic acid butylamide] | 63 nM
14 | N[C@@H](CC(=O)N1CCn2c(C(F)(F)F)nc(C(=O)N3CC[C@@H](O)C3)c2C1)Cc1cc(F)c(F)cc1F [Example 14, (R)-3-Amino-1-[1-((R)-3-hydroxy-pyrrolidine-1-carbonyl)-3-trifluoromethyl-5,6-dihydro-8H-imidazo[1,5-a]pyrazin-7-yl]-4-(2,4,5-trifluoro-phenyl)-butan-1-one hydrochloride] | 47 nM
15 | CN1CCN(C(=O)c2nc(C(F)(F)F)n3c2CN(C(=O)C[C@H](N)Cc2cc(F)c(F)cc2F)CC3)CC1 [Example 5, (R)-3-Amino-1-[1-(4-methyl-piperazine-1-carbonyl)-3-trifluoromethyl-5,6-dihydro-8H-imidazo[1,5-a]pyrazin-7-yl]-4-(2,4,5-trifluoro-phenyl)-butan-1-one dihydrochloride] | 27 nM
16 | N[C@@H](CC(=O)N1CCn2c(C(F)(F)F)nc(C(=O)N3CCNCC3)c2C1)Cc1cc(F)c(F)cc1F [Example 13, (R)-3-Amino-1-[1-(piperazine-1-carbonyl)-3-trifluoromethyl-5,6-dihydro-8H-imidazo[1,5-a]pyrazin-7-yl]-4-(2,4,5-trifluoro-phenyl)-butan-1-one dihydrochloride] | 41 nM
17 | CCNC(=O)c1nc(C(F)(F)F)n2c1CN(C(=O)C[C@H](N)Cc1cc(F)c(F)cc1F)CC2 [Example 42, (R)-7-[3-Amino-4-(2,4,5-trifluoro-phenyl)-butyryl]-3-trifluoromethyl-5,6,7,8-tetrahydro-imidazo[1,5-a]pyrazine-1-carboxylic acid ethylamide] | 18 nM
18 | N[C@@H](CC(=O)N1CCn2c(C(F)(F)F)nc(C(=O)O)c2C1)Cc1cc(F)c(F)cc1F [Example 10, (R)-7-[3-Amino-4-(2,4,5-trifluoro-phenyl)-butyryl]-3-trifluoromethyl-5,6,7,8-tetrahydro-imidazo[1,5-a]pyrazine-1-carboxylic acid hydrochloride] | 21 nM
19 | CC(C)(C)OC(=O)c1nc(C(F)(F)F)n2c1CN(C(=O)C[C@H](N)Cc1cc(F)c(F)cc1F)CC2 [Example 36, (R)-7-[3-Amino-4-(2,4,5-trifluoro-phenyl)-butyryl]-3-trifluoromethyl-5,6,7,8-tetrahydro-imidazo[1,5-a]pyrazine-1-carboxylic acid tert-butyl ester hydrochloride] | 221 nM
20 | CC(OC(=O)OC1CCCCC1)OC(=O)c1nc(C(F)(F)F)n2c1CN(C(=O)C[C@H](N)Cc1cc(F)c(F)cc1F)CC2 (stereo partly drawn) [Example 38, (R)-7-[3-Amino-4-(2,4,5-trifluoro-phenyl)-butyryl]-3-trifluoromethyl-5,6,7,8-tetrahydro-imidazo[1,5-a]pyrazine-1-carboxylic acid (1-cyclohexyloxycarbonyloxy)-ethyl ester hydrochloride] | 184 nM
21 | COC(=O)c1nc(C(F)(F)F)n2c1C(C)N(C(=O)C[C@H](N)Cc1cc(F)c(F)cc1F)CC2 (stereo partly drawn) [Example 39, (R)-7-[3-Amino-4-(2,4,5-trifluoro-phenyl)-butyryl]-8-methyl-3-trifluoromethyl-5,6,7,8-tetrahydro-imidazo[1,5-a]pyrazine-1-carboxylic acid methyl ester hydrochloride] | 16 nM
22 | NC(=O)C1CCN(C(=O)c2nc(C(F)(F)F)n3c2CN(C(=O)C[C@H](N)Cc2cc(F)c(F)cc2F)CC3)CC1 [Example 7, (R)-1-{7-[3-Amino-4-(2,4,5-trifluoro-phenyl)-butyryl]-3-trifluoromethyl-5,6,7,8-tetrahydro-imidazo[1,5-a]pyrazine-1-carbonyl}-piperidine-4-carboxylic acid amide hydrochloride] | 25 nM
23 | N[C@@H](CC(=O)N1CCn2c(C(F)(F)F)nc(C(=O)N3CCOCC3)c2C1)Cc1cc(F)c(F)cc1F [Example 3, (R)-3-Amino-1-[1-(morpholine-4-carbonyl)-3-trifluoromethyl-5,6-dihydro-8H-imidazo[1,5-a]pyrazin-7-yl]-4-(2,4,5-trifluoro-phenyl)-butan-1-one hydrochloride] | 89 nM
24 | N[C@@H](CC(=O)N1CCn2c(C(F)(F)F)nc(C(=O)NC3CC3)c2C1)Cc1cc(F)c(F)cc1F [Example 15, (R)-7-[3-Amino-4-(2,4,5-trifluoro-phenyl)-butyryl]-3-trifluoromethyl-5,6,7,8-tetrahydro-imidazo[1,5-a]pyrazine-1-carboxylic acid cyclopropylamide hydrochloride] | 25 nM
25 | CN(C)C(=O)c1nc(C(F)(F)F)n2c1CN(C(=O)C[C@H](N)Cc1cc(F)c(F)cc1F)CC2 [Example 9, (R)-7-[3-Amino-4-(2,4,5-trifluoro-phenyl)-butyryl]-3-trifluoromethyl-5,6,7,8-tetrahydro-imidazo[1,5-a]pyrazine-1-carboxylic acid dimethylamide hydrochloride] | 75 nM
